Data: patent US20090264401A1, “SUBSTITUTED PYRIMIDIN-5-CARBOXAMIDES 281” (AstraZeneca AB, priority 2008, published 2009)

Target: T1, human 11βHSD1 enzyme (Homo sapiens, UniProt P28845)
T1 construct: baculovirus expressed N terminal 6-His tagged full length human 11βHSD1 enzyme; 6-His (N); made in house
Assay: 11βHSD1 cortisone to cortisol conversion, competitive HTRF assay
Assay type: biochemical
Details: human 11-βHSD; test concentration of 30 μM of compound
Method: The evaluation of compounds described herein was carried out using a baculovirus expressed N terminal 6-His tagged full length human 11βHSD1 enzyme(*1). The enzyme was purified from a detergent solubilised cell lysate, using a copper chelate column. Inhibitors of 11βHSD1 reduce the conversion of cortisone to cortisol, which is identified by an increase in signal, in the above assay.
Compounds to be tested were dissolved in dimethyl sulphoxide (DMSO) to 10 mM and diluted further in assay buffer containing 1% DMSO to 10 fold the final assay concentration. Diluted compounds were then plated into black 384 well plates (Matrix, Hudson N.H., USA).
Fluorescence at 665 nm and 620 nm was measured and the 665 nm:620 nm ratio calculated using an Envision plate reader.

T1 sequence (P28845 whole entry): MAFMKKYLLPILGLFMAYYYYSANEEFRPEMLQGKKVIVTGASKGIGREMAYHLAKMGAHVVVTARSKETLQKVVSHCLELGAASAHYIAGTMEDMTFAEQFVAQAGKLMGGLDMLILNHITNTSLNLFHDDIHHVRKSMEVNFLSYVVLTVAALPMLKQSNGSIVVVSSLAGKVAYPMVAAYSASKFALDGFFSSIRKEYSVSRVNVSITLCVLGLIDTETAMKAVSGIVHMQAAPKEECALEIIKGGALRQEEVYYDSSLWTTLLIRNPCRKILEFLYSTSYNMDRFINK

inhibition at 30 µM [%]	Compound
97.8	O=C(N[C@H]1C2CC3CC1C[C@@](O)(C3)C2)c1cnc(NC2CCC2)nc1C1CCC1 [Example 98, N-[(2r,5s)-5-hydroxyadamantan-2-yl] 4-cyclobutyl-2-(cyclobutylamino)pyrimidine-5-carboxamide]
93.3	C[C@@H]1CN(c2ncc(C(=O)N[C@H]3C4CC5CC3C[C@@](O)(C5)C4)c(C3CCC3)n2)C[C@H](C)N1 [Example 99, 4-cyclobutyl-2-[(3R,5S)-3,5-dimethylpiperazin-1-yl]-N-[(2r,5s)-5-hydroxyadamantan-2-yl]pyrimidine-5-carboxamide]
102	C[C@@H]1CN(c2ncc(C(=O)N[C@H]3C4CC5CC3C[C@@](O)(C5)C4)c(C3CCC3)n2)C[C@@H](C)O1 [Example 101, 4-cyclobutyl-2-[(2R,6R)-2,6-dimethylmorpholin-4-yl]-N-[(2r,5s)-5-hydroxyadamantan-2-yl]pyrimidine-5-carboxamide]
93.8	O=C(N[C@H]1C2CC3CC1C[C@@](O)(C3)C2)c1cnc(NC2CCCC2)nc1C1CCC1 [Example 102, 4-cyclobutyl-2-(cyclopentylamino)-N-[(2r,5s)-5-hydroxyadamantan-2-yl]pyrimidine-5-carboxamide]
95.7	O=C(NC1C2CC3CC1CC(O)(C3)C2)c1cnc(N2C[C@@H]3C[C@H]2CO3)nc1C1CCC1 (stereo partly drawn) [Example 103, 4-cyclobutyl-N-[(2r,5s)-5-hydroxyadamantan-2-yl]-2-[(1S,4S)-2-oxa-5-azabicyclo[2.2.1]hept-5-yl]pyrimidine-5-carboxamide]
99.3	O=C(N[C@H]1C2CC3CC1C[C@@](O)(C3)C2)c1cnc(NC2COC2)nc1C1CCC1 [Example 104, 4-cyclobutyl-N-[(2r,5s)-5-hydroxyadamantan-2-yl]-2-(oxetan-3-ylamino)pyrimidine-5-carboxamide]
101	O=C(N[C@H]1C2CC3CC1C[C@@](O)(C3)C2)c1cnc(OC2CCCC2)nc1C1CCC1 [Example 106, 4-cyclobutyl-2-(cyclopentyloxy)-N-[(2r,5s)-5-hydroxyadamantan-2-yl]pyrimidine-5-carboxamide]
97.3	CC(C)Oc1ncc(C(=O)N[C@H]2C3CC4CC2C[C@@](O)(C4)C3)c(C2CCC2)n1 [Example 107, 4-cyclobutyl-N-[(2r,5s)-5-hydroxyadamantan-2-yl]-2-isopropoxypyrimidine-5-carboxamide]
96	O=C(N[C@H]1C2CC3CC1C[C@@](O)(C3)C2)c1cnc(OC2CCC2)nc1C1CCC1 [Example 108, 4-cyclobutyl-2-(cyclobutyloxy)-N-[(2r,5s)-5-hydroxyadamantan-2-yl]pyrimidine-5-carboxamide]
90.3	O=C(N[C@H]1C2CC3CC1C[C@@](O)(C3)C2)c1cnc(OC2COC2)nc1C1CCC1 [Example 109, 4-cyclobutyl-N-[(2r,5s)-5-hydroxyadamantan-2-yl]-2-(oxetan-3-yloxy)pyrimidine-5-carboxamide]
100	CC(C)Oc1ncc(C(=O)N[C@H]2C3CC4CC2C[C@@](O)(C4)C3)c(C2CCCC2)n1 [Example 110, 4-cyclopentyl-N-[(2r,5s)-5-hydroxyadamantan-2-yl]-2-propan-2-yloxypyrimidine-5-carboxamide]
108	O=C(N[C@H]1C2CC3CC1C[C@@](O)(C3)C2)c1cnc(OC2CCC2)nc1C1CCCC1 [Example 111, 2-cyclobutyloxy-4-cyclopentyl-N-[(2r,5s)-5-hydroxyadamantan-2-yl]pyrimidine-5-carboxamide]
104	O=C(N[C@H]1C2CC3CC1C[C@@](O)(C3)C2)c1cnc(OC2CCCC2)nc1C1CCCC1 [Example 112, 4-cyclopentyl-2-cyclopentyloxy-N-[(2r,Ss)-5-hydroxyadamantan-2-yl]pyrimidine-5-carboxamide]
98.4	O=C(N[C@H]1C2CC3CC1C[C@@](O)(C3)C2)c1cnc(OC2COC2)nc1C1CCCC1 [Example 113, 4-cyclopentyl-N-[(2r,5s)-5-hydroxyadamantan-2-yl]-2-(oxetan-3-yloxy)pyrimidine-5-carboxamide]
106	O=C(N[C@H]1C2CC3CC1C[C@@](O)(C3)C2)c1cnc(N2CCSCC2)nc1C1CCCC1 [Example 114, 4-Cyclopentyl-N-[(2s,5r)-5-hydroxyadamantan-2-yl]-2-thiomorpholin-4-ylpyrimidine-5-carboxamide]
93.4	O=C(N[C@H]1C2CC3CC1C[C@@](O)(C3)C2)c1cnc(N2CC[S+]([O-])CC2)nc1C1CCCC1 [Example 115, 4-Cyclopentyl-N-[(2r,5 s)-5-hydroxyadamantan-2-yl]-2-(1-oxo-1,4-thiazinan-4-yl)pyrimidine-5-carboxamide]

The remaining lines, values behind:

Compound	inhibition at 30 µM [%]
C[C@@H]1CN(c2ncc(C(=O)N3CCC(c4cccnc4)C3)c(C3CC3)n2)C[C@H](C)O1 (stereo partly drawn) [Example 81, (4-cyclopropyl-2-((2S,6R)-2,6-dimethylmorpholino)pyrimidin-5-yl)(3-(pyridin-3-yl)pyrrolidin-1-yl)methanone]	100
O=C(N[C@H]1C2CC3CC1C[C@@](O)(C3)C2)c1cnc(N2CC[S+]([O-])CC2)nc1C1CCC1 [Example 82, 4-Cyclobutyl-N-[(2r,5 s)-5-hydroxyadamantan-2-yl]-2-(1-oxo-1,4-thiazinan-4-yl)pyrimidine-5-carboxamide]	95.2
O=C(N[C@H]1C2CC3CC1C[C@@](O)(C3)C2)c1cnc(N2CCS(=O)(=O)CC2)nc1C1CCC1 [Example 83, 4-Cyclobutyl-2-(1,1-dioxo-1,4-thiazinan-4-yl)-N-[(2r,5s)-5-hydroxyadamantan-2-yl]pyrimidine-5-carboxamide]	103
Nc1ncc(C(=O)N[C@H]2C3CC4CC2C[C@@](O)(C4)C3)c(C2CCC2)n1 [Example 84, 2-Amino-4-cyclobutyl-N-[(2r,5s)-5-hydroxyadamantan-2-yl]pyrimidine-5-carboxamide]	97.5
O=C(N[C@H]1C2CC3CC1C[C@@](O)(C3)C2)c1cnc(N2CCC2)nc1C1CCC1 [Example 85, 2-Azetidin-1-yl-4-cyclobutyl-N-[(2r,5s)-5-hydroxyadamantan-2-yl]pyrimidine-5-carboxamide]	88.8
CN(C)c1ncc(C(=O)N[C@H]2C3CC4CC2C[C@@](O)(C4)C3)c(C2CCC2)n1 [Example 86, 4-cyclobutyl-2-(dimethylamino)-N-[(2r,5s)-5-hydroxyadamantan-2-yl]pyrimidine-5-carboxamide]	97
COCCN1CCN(c2ncc(C(=O)N[C@H]3C4CC5CC3C[C@@](O)(C5)C4)c(C3CCC3)n2)CC1 [Example 87, 4-cyclobutyl-N-[(2r,5s)-5-hydroxyadamantan-2-yl]-2-[4-(2-methoxyethyl)piperazin-1-yl]pyrimidine-5-carboxamide]	95.7
O=C(N[C@H]1C2CC3CC1C[C@@](O)(C3)C2)c1cnc(NC2CC2)nc1C1CCC1 [Example 88, 4-cyclobutyl-2-(cyclopropylamino)-N-[(2r,5s)-5-hydroxyadamantan-2-yl]pyrimidine-5-carboxamide]	94.9
O=C(N[C@H]1C2CC3CC1C[C@@](O)(C3)C2)c1cnc(N2CC(F)(F)C2)nc1C1CCC1 [Example 89, 4-cyclobutyl-2-(3,3-difluoroazetidin-1-yl)-N-[(2r,5s)-5-hydroxyadamantan-2-yl]pyrimidine-5-carboxamide]	95.5
O=C(N[C@H]1C2CC3CC1C[C@@](O)(C3)C2)c1cnc(N2CCOCC2CO)nc1C1CCC1 (some centres unmarked) [Example 90, 4-cyclobutyl-N-[(2r,5s)-5-hydroxyadamantan-2-yl]-2-[3-(hydroxymethyl)morpholin-4-yl]pyrimidine-5-carboxamide]	100
CNc1ncc(C(=O)N[C@H]2C3CC4CC2C[C@@](O)(C4)C3)c(C2CCC2)n1 [Example 91, 4-cyclobutyl-N-[(2r,5s)-5-hydroxyadamantan-2-yl]-2-(methylamino)pyrimidine-5-carboxamide]	95.7
C[C@@H]1CN(c2ncc(C(=O)N[C@H]3C4CC5CC3C[C@@](O)(C5)C4)c(C3CCC3)n2)C[C@H](C)O1 [Example 92, 4-cyclobutyl-2-[(2R,6S)-2,6-dimethylmorpholin-4-yl]-N-[(2r,5s)-5-hydroxyadamantan-2-yl]pyrimidine-5-carboxamide]	97.1
O=C(N[C@H]1C2CC3CC1C[C@@](O)(C3)C2)c1cnc(N2CCOC(CO)C2)nc1C1CCC1 (some centres unmarked) [Example 93, 4-cyclobutyl-N-[(2r,5s)-5-hydroxyadamantan-2-yl]-2-[2-(hydroxymethyl)morpholin-4-yl]pyrimidine-5-carboxamide]	93.1
CC(C)Nc1ncc(C(=O)N[C@H]2C3CC4CC2C[C@@](O)(C4)C3)c(C2CCC2)n1 [Example 94, 4-cyclobutyl-N-[(2r,5s)-5-hydroxyadamantan-2-yl]-2-(isopropylamino)pyrimidine-5-carboxamide]	103
CC(C)(CO)Nc1ncc(C(=O)N[C@H]2C3CC4CC2C[C@@](O)(C4)C3)c(C2CCC2)n1 [Example 95, 4-cyclobutyl-N-[(2r,5s)-5-hydroxyadamantan-2-yl]-2-[(2-hydroxy-1,1-dimethylethyl)amino]pyrimidine-5-carboxamide]	97.3
O=C(N[C@H]1C2CC3CC1C[C@@](O)(C3)C2)c1cnc(NC2CCOCC2)nc1C1CCC1 [Example 96, 4-cyclobutyl-N-[(2r,5s)-5-hydroxyadamantan-2-yl]-2-(tetrahydro-2H-pyran-4-ylamino)pyrimidine-5-carboxamide]	97.4
